The text below walks through data of patent US7381737B2, “Crystalline forms and process for preparing spiro-hydantoin compounds” (Bristol-Myers Squibb Company, priority 2004, dated 2008).

For `CN1C(=O)N(c2cc(Cl)cc(Cl)c2)C(=O)[C@]12CN(CN1C[C@H](c3ccc(C#N)cc3)[C@@]3(C1)C(=O)N(c1cc(Cl)cc(Cl)c1)C(=O)N3C)C[C@H]2c1ccc(C#N)cc1` (hydrate or solvate) [Example 6a, Meso Aminal Dimer of 4-[3-(3,5-Dichlorophenyl)-1-methyl-2,4-dioxo-1,3,7-triazaspiro[4.4]non-9-yl]-benzonitrile], the melting point (usually the temperature, or range, at which the solid turns liquid) lay within 79 to 109 °C.
In turn, `COC(=O)c1csc(CN2C[C@@H](c3ccc(C#N)cc3)[C@]3(C2)C(=O)N(c2cc(Cl)cc(Cl)c2)C(=O)N3C)c1.Cl` (stereo in doubt) came in with a melting point of 204 to 207 °C.
Consider `CN1C(=O)N(c2cc(Cl)cc(Cl)c2)C(=O)[C@]12CN(CN1C[C@@H](c3ccc(C#N)cc3)[C@]3(C1)C(=O)N(c1cc(Cl)cc(Cl)c1)C(=O)N3C)C[C@H]2c1ccc(C#N)cc1` (racemic) (hydrate or solvate) [Example 6b, Racemic Aminal Dimer of 4-[3-(3,5-Dichlorophenyl)-1-methyl-2,4-dioxo-1,3,7-triazaspiro[4.4]non-9-yl]-benzonitrile], for which the melting point fell in the range of 31 to 47 °C.
